# Measured values published in PubChem BioAssay (NCI).
#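 Growth conditions: 96-well plates. Treatment: test compound, 48 hours, 5 concentrations. Analysis: linear interpolation between bracketing concentrations; unreached endpoints set to highest concentration. TGI: total growth inhibition.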
# How the values were obtained:
# Assay in all cases: NCI-60 cell line screen, 48 h
# T-47D breast = test system: T-47D breast
# M14 melanoma = test system: M14 melanoma
# MALME-3M melanoma = test system: MALME-3M melanoma
# SK-MEL-5 melanoma = test system: SK-MEL-5 melanoma
# EKVX NSCLC = test system: EKVX NSCLC
# LOX IMVI melanoma = test system: LOX IMVI melanoma
# MCF7 breast = test system: MCF7 breast
# SW-620 colon = test system: SW-620 colon
# K-562 leukemia = test system: K-562 leukemia
# PC-3 prostate = test system: PC-3 prostate
# UACC-62 melanoma = test system: UACC-62 melanoma
# OVCAR-4 ovarian = test system: OVCAR-4 ovarian
# NCI/ADR-RES ovarian = test system: NCI/ADR-RES ovarian
# CCRF-CEM leukemia = test system: CCRF-CEM leukemia
# SK-OV-3 ovarian = test system: SK-OV-3 ovarian
# SN12C renal = test system: SN12C renal
# HOP-92 NSCLC = test system: HOP-92 NSCLC
# NCI-H522 lung = test system: NCI-H522 lung
# SK-MEL-2 melanoma = test system: SK-MEL-2 melanoma
# RXF 393 renal = test system: RXF 393 renal
Structure (SMILES),TGI (T-47D breast) [µM],TGI (M14 melanoma) [µM],TGI (MALME-3M melanoma) [µM],TGI (SK-MEL-5 melanoma) [µM],TGI (EKVX NSCLC) [µM],TGI (LOX IMVI melanoma) [µM],TGI (MCF7 breast) [µM],TGI (SW-620 colon) [µM],TGI (K-562 leukemia) [µM],TGI (PC-3 prostate) [µM],TGI (UACC-62 melanoma) [µM],TGI (OVCAR-4 ovarian) [µM],TGI (NCI/ADR-RES ovarian) [µM],TGI (CCRF-CEM leukemia) [µM],TGI (SK-OV-3 ovarian) [µM],TGI (SN12C renal) [µM],TGI (HOP-92 NSCLC) [µM],TGI (NCI-H522 lung) [µM],TGI (SK-MEL-2 melanoma) [µM],TGI (RXF 393 renal) [µM]
N=C(N)C1CN(CC=O)C(=O)NC1=O (centres undefined),> 100,> 100,> 100,> 100,> 100,> 100,> 100,> 100,> 100,> 100,> 100,> 100,> 100,> 100,> 100,> 100,> 100,–,–,–
C(/C=N/NC1=NCCCN1)=N\NC1=NCCCN1,> 100,> 100,> 100,> 100,> 100,> 100,> 100,> 100,> 100,> 100,> 100,> 100,> 100,> 100,> 100,> 100,> 100,> 100,–,–
Cc1ncc([N+](=O)[O-])n1CCNC(=O)CCn1ccnc1[N+](=O)[O-],> 100,> 100,> 100,> 100,> 100,> 100,> 100,> 100,> 100,> 100,> 100,> 100,> 100,> 100,> 100,> 100,–,> 100,> 100,–
Cc1nc2ccc(N=NN(C)C)cc2[nH]1,> 100,> 100,> 100,> 100,> 100,> 100,> 100,> 100,–,> 100,> 100,> 100,> 100,> 100,> 100,> 100,–,> 100,> 100,> 100
O=C(/C=C/c1ccccc1)CCC1C(=O)NC(=O)NC1=O,> 100,> 100,> 100,> 100,> 100,> 100,> 100,> 100,> 100,> 100,> 100,> 100,> 100,–,> 100,> 100,> 100,> 100,> 100,–
CCO/C(O)=C(/C(=N)N1CCCC1)C(=O)Nc1ccc(Cl)cc1,> 100,> 100,> 100,–,> 100,> 100,> 100,> 100,> 100,> 100,> 100,> 100,> 100,> 100,> 100,> 100,–,> 100,> 100,> 100
COc1cc(/C=C2\N=C(c3ccccc3)N(/N=C/c3cc4cc(C)ccc4nc3Cl)C2=O)cc(OC)c1OC,63.3,> 100,–,> 100,> 100,> 100,> 100,> 100,> 100,54.7,> 100,> 100,> 100,–,> 100,> 100,> 100,–,48,–
C=CC(c1ccccc1)C1(O)c2cccc(O)c2C(=O)c2c(O)cccc21 (centres undefined),42.3,34.5,–,32,38.6,29.9,37.8,37,37.7,28.1,–,33.2,31.2,–,–,–,30.5,30.1,26.4,29.1
Cc1ccccc1NC(=O)/C(C#N)=N\Nc1nc[nH]c1C(N)=O,> 100,> 100,> 100,> 100,> 100,–,> 100,> 100,> 100,> 100,> 100,> 100,> 100,> 100,> 100,> 100,–,> 100,> 100,> 100
COc1ccc(-n2cnc3c(NC(C)(C)C(=O)O)ncnc32)cc1,> 100,> 100,–,> 100,> 100,> 100,> 100,> 100,> 100,> 100,> 100,> 100,> 100,> 100,> 100,> 100,> 100,–,> 100,–
CC(Oc1ccc(Cl)cc1Cl)C(=O)NN1C(=O)CSC1c1ccc(Cl)cc1 (centres undefined),> 100,> 100,–,> 100,> 100,> 100,> 100,> 100,> 100,> 100,> 100,> 100,> 100,–,> 100,37.8,66.3,> 100,> 100,83.4
N#CC1=C(N2CCOCC2)CCC1,> 100,> 100,> 100,> 100,> 100,> 100,> 100,> 100,> 100,> 100,> 100,> 100,> 100,> 100,> 100,> 100,–,> 100,> 100,> 100
COC(=O)[C@]12CSC[C@H]1C[C@H](c1ccc(N(C)C)cc1)N2,> 100,> 100,> 100,> 100,> 100,> 100,> 100,> 100,> 100,> 100,> 100,> 100,> 100,> 100,> 100,> 100,> 100,–,> 100,> 100
Cc1n[nH]c(=O)n1/N=C/c1cccnc1,> 100,> 100,> 100,> 100,> 100,> 100,> 100,> 100,> 100,> 100,> 100,> 100,> 100,> 100,> 100,> 100,> 100,> 100,> 100,–
NC(=S)N/N=C(/C(=O)Nc1nc2ccc([N+](=O)[O-])cc2s1)C1C(=O)NC(=S)NC1=O,> 100,> 100,–,–,–,> 100,> 100,> 100,> 100,> 100,> 100,> 100,> 100,> 100,> 100,> 100,> 100,–,> 100,> 100
CCn1c(SCC(=O)NNC(=S)Nc2ccc(F)cc2)nc2ccccc2c1=O,> 100,> 100,> 100,> 100,> 100,> 100,> 100,> 100,> 100,> 100,> 100,> 100,> 100,> 100,> 100,> 100,–,> 100,> 100,> 100
COC(=O)c1c(C(=O)OC)c(C(c2ccccc2)c2ccccc2)n(-c2ccccc2)c1Cl,> 10,> 10,> 10,> 10,> 10,–,> 10,> 10,> 10,> 10,> 10,> 10,> 10,> 10,–,> 10,> 10,–,–,> 10
COc1ccc(C(CC(=O)c2ccccc2)C(=O)c2ccc3c(c2)OCO3)cc1 (centres undefined),> 100,> 100,> 100,> 100,> 100,–,> 100,> 100,> 100,> 100,> 100,–,> 100,> 100,> 100,> 100,–,–,> 100,–
CCn1c(=O)c2c3ccc(O)cc3oc2c2ccc(O)cc21,69.1,> 100,> 100,> 100,7.39,–,> 100,> 100,> 100,> 100,> 100,> 100,> 100,> 100,> 100,> 100,> 100,> 100,–,> 100
O=S1(=O)OCCCOS(=O)(=O)C1Br,> 100,> 100,> 100,> 100,> 100,> 100,> 100,> 100,–,> 100,> 100,> 100,> 100,–,> 100,> 100,–,> 100,> 100,> 100
CC(C)N(c1cc2c(cc1F)c(=O)c(C(=O)O)cn2-c1ccc(N2CCN(C)CC2)cn1)C(C)C,> 100,> 100,> 100,–,> 100,> 100,> 100,> 100,> 100,> 100,–,> 100,> 100,> 100,> 100,> 100,> 100,–,–,> 100
Cc1ccnc2c1ccc1nc3ccccc3n12,> 100,> 100,–,93.1,> 100,> 100,> 100,> 100,> 100,> 100,> 100,> 100,> 100,> 100,–,> 100,> 100,44.5,> 100,> 100
COC(=O)/C=C(\S/C(=C(/c1ccc(OC)cc1)n1cc(C(=O)OC)c(C(=O)OC)n1)c1ccc(OC)cc1)C(=O)OC,10.2,> 100,37.1,> 100,49.5,25.4,> 100,> 100,> 100,> 100,> 100,68.3,> 100,15.4,> 100,51.4,–,–,> 100,29.4
Cc1ccnc2nc3[nH]c4ccccc4c3cc12,> 100,> 100,–,> 100,> 100,> 100,> 100,> 100,> 100,> 100,> 100,> 100,> 100,> 100,–,> 100,> 100,> 100,> 100,> 100
CN1CCC/C1=C1\C(=O)c2cccn2C1=O,> 100,> 100,> 100,> 100,> 100,> 100,> 100,> 100,> 100,> 100,> 100,> 100,> 100,> 100,> 100,> 100,–,> 100,> 100,> 100
COc1ccc(C(=O)N2CCN(c3ccc4[nH]c(=O)oc4c3)CC2)cc1,> 100,> 100,> 100,> 100,> 100,> 100,> 100,> 100,–,> 100,> 100,> 100,> 100,> 100,> 100,> 100,> 100,> 100,> 100,–
C[C@@H]1OC2(O)[C@@H]3CCCN3C(=O)N(Cc3ccccc3)N2C1=O (some centres undefined),> 100,> 100,> 100,> 100,> 100,> 100,> 100,> 100,–,> 100,> 100,> 100,> 100,> 100,> 100,> 100,> 100,–,> 100,> 100
